tested on: Entamoeba histolytica; assay: Antiamoebic activity against Entamoeba histolytica HM1:IMSS by microdilution method; type: functional, organism-based

Row | SMILES | IC50 [µM]
1 | CC1CCN(C(=S)N/N=C\c2c[nH]c3ccccc23)CC1 | 8.37
2 | S=C(N/N=C\c1c[nH]c2ccccc12)NC1C2CC3CC(C2)CC1C3 (configuration not stated) | 1.08
3 | S=C(N/N=C\c1c[nH]c2ccccc12)N1CCCc2ccccc21 | 1.68
4 | S=C(N/N=C\c1c[nH]c2ccccc12)N1CCCC1 | 14.6
5 | S=C(N/N=C\c1c[nH]c2ccccc12)NC1CCCC1 | 13.9
6 | S=C(N/N=C\c1c[nH]c2ccccc12)N1CCN(c2ccccc2)CC1 | 3.09
7 | S=C(N/N=C\c1c[nH]c2ccccc12)NC1CCCCCCC1 | 6.08
